Laboratory results from the NIST ThermoML archive (doi:10.1007/s10765-009-0566-6).

Columns and labels:
[1] = refractive index (Na D-line) (dimensionless); mn = molality of the nth substance listed, in mol/kg; settings: 101 kPa, Liquid, Standard Abbe refractometry
[2] = cn = amount concentration of the nth substance listed, in mol/dm3; settings: 101 kPa, Liquid, Direct current cell with electrodes

CCCCCn1cc[n+](C)c1.[Cl-] [1-methyl-3-pentylimidazolium chloride] + O
Settings	molar conductivity [S·m2/mol]	refractive index
[1], 298.15 K, m1 = 0.014	–	1.3331
[1], 298.15 K, m1 = 0.0263	–	1.3334
[1], 298.15 K, m1 = 0.0391	–	1.3338
[1], 298.15 K, m1 = 0.0518	–	1.3342
[1], 298.15 K, m1 = 0.0634	–	1.3344
[1], 298.15 K, m1 = 0.084	–	1.3351
[1], 298.15 K, m1 = 0.1007	–	1.3358
[1], 298.15 K, m1 = 0.1369	–	1.3367
[1], 298.15 K, m1 = 0.1784	–	1.3379
[1], 298.15 K, m1 = 0.2198	–	1.3392
[1], 298.15 K, m1 = 0.2765	–	1.3408
[1], 298.15 K, m1 = 0.3517	–	1.343
[1], 298.15 K, m1 = 0.4043	–	1.3443
[1], 298.15 K, m1 = 0.5014	–	1.347
[1], 298.15 K, m1 = 0.5758	–	1.3489
[1], 298.15 K, m1 = 0.8464	–	1.3558
[1], 298.15 K, m1 = 1.002	–	1.3596
[1], 298.15 K, m1 = 1.376	–	1.3679
[1], 298.15 K, m1 = 1.797	–	1.3764
[1], 308.15 K, m1 = 0.014	–	1.3318
[1], 308.15 K, m1 = 0.0263	–	1.3321
[1], 308.15 K, m1 = 0.0391	–	1.3324
[1], 308.15 K, m1 = 0.0518	–	1.3328
[1], 308.15 K, m1 = 0.0634	–	1.3331
[1], 308.15 K, m1 = 0.084	–	1.3339
[1], 308.15 K, m1 = 0.1007	–	1.3344
[1], 308.15 K, m1 = 0.1369	–	1.3357
[1], 308.15 K, m1 = 0.1784	–	1.3367
[1], 308.15 K, m1 = 0.2198	–	1.3378
[1], 308.15 K, m1 = 0.2765	–	1.3397
[1], 308.15 K, m1 = 0.3517	–	1.3416
[1], 308.15 K, m1 = 0.4043	–	1.343
[1], 308.15 K, m1 = 0.5014	–	1.3457
[1], 308.15 K, m1 = 0.5758	–	1.3475
[1], 308.15 K, m1 = 0.8464	–	1.3547
[1], 308.15 K, m1 = 1.002	–	1.3579
[1], 308.15 K, m1 = 1.376	–	1.3658
[1], 308.15 K, m1 = 1.797	–	1.3745
[1], 318.15 K, m1 = 0.014	–	1.3302
[1], 318.15 K, m1 = 0.0263	–	1.3305
[1], 318.15 K, m1 = 0.0391	–	1.3308
[1], 318.15 K, m1 = 0.0518	–	1.3313
[1], 318.15 K, m1 = 0.0634	–	1.3316
[1], 318.15 K, m1 = 0.084	–	1.3322
[1], 318.15 K, m1 = 0.1007	–	1.3327
[1], 318.15 K, m1 = 0.1369	–	1.3336
[1], 318.15 K, m1 = 0.1784	–	1.3349
[1], 318.15 K, m1 = 0.2198	–	1.3359
[1], 318.15 K, m1 = 0.2765	–	1.3377
[1], 318.15 K, m1 = 0.3517	–	1.3397
[1], 318.15 K, m1 = 0.4043	–	1.3411
[1], 318.15 K, m1 = 0.5014	–	1.3437
[1], 318.15 K, m1 = 0.5758	–	1.3457
[1], 318.15 K, m1 = 0.8464	–	1.3523
[1], 318.15 K, m1 = 1.002	–	1.3557
[1], 318.15 K, m1 = 1.376	–	1.3639
[1], 318.15 K, m1 = 1.797	–	1.3721
[1], 328.15 K, m1 = 0.014	–	1.3282
[1], 328.15 K, m1 = 0.0263	–	1.3284
[1], 328.15 K, m1 = 0.0391	–	1.3288
[1], 328.15 K, m1 = 0.0518	–	1.3291
[1], 328.15 K, m1 = 0.0634	–	1.3294
[1], 328.15 K, m1 = 0.084	–	1.3305
[1], 328.15 K, m1 = 0.1007	–	1.3309
[1], 328.15 K, m1 = 0.1369	–	1.3316
[1], 328.15 K, m1 = 0.1784	–	1.3328
[1], 328.15 K, m1 = 0.2198	–	1.3339
[1], 328.15 K, m1 = 0.2765	–	1.3356
[1], 328.15 K, m1 = 0.3517	–	1.3376
[1], 328.15 K, m1 = 0.4043	–	1.3389
[1], 328.15 K, m1 = 0.5014	–	1.3419
[1], 328.15 K, m1 = 0.5758	–	1.344
[1], 328.15 K, m1 = 0.8464	–	1.3505
[1], 328.15 K, m1 = 1.002	–	1.3537
[1], 328.15 K, m1 = 1.376	–	1.3619
[1], 328.15 K, m1 = 1.797	–	1.3697
[2], 298.15 K, c1 = 0.000693	0.00871	–
[2], 298.15 K, c1 = 0.001453	0.00866	–
[2], 298.15 K, c1 = 0.002097	0.00863	–
[2], 298.15 K, c1 = 0.002732	0.00862	–
[2], 298.15 K, c1 = 0.004637	0.0086	–
[2], 298.15 K, c1 = 0.006272	0.00858	–
[2], 298.15 K, c1 = 0.007754	0.00852	–
[2], 298.15 K, c1 = 0.01023	0.00841	–
[2], 298.15 K, c1 = 0.01283	0.00832	–
[2], 298.15 K, c1 = 0.01775	0.00817	–
[2], 298.15 K, c1 = 0.02186	0.00804	–
[2], 298.15 K, c1 = 0.02704	0.00793	–
[2], 298.15 K, c1 = 0.03205	0.00783	–
[2], 298.15 K, c1 = 0.0368	0.0078	–
[2], 298.15 K, c1 = 0.04132	0.00772	–
[2], 298.15 K, c1 = 0.04635	0.00763	–
[2], 298.15 K, c1 = 0.05182	0.00752	–
[2], 308.15 K, c1 = 0.000752	0.00993	–
[2], 308.15 K, c1 = 0.001643	0.00975	–
[2], 308.15 K, c1 = 0.002686	0.00964	–
[2], 308.15 K, c1 = 0.00347	0.00956	–
[2], 308.15 K, c1 = 0.004191	0.00959	–
[2], 308.15 K, c1 = 0.005081	0.00953	–
[2], 308.15 K, c1 = 0.006215	0.00945	–
[2], 308.15 K, c1 = 0.007646	0.00937	–
[2], 308.15 K, c1 = 0.009172	0.00927	–
[2], 308.15 K, c1 = 0.01102	0.00917	–
[2], 308.15 K, c1 = 0.01269	0.00912	–
[2], 308.15 K, c1 = 0.01447	0.00906	–
[2], 308.15 K, c1 = 0.01625	0.00902	–
[2], 308.15 K, c1 = 0.01799	0.00895	–
[2], 308.15 K, c1 = 0.01986	0.00889	–
[2], 308.15 K, c1 = 0.02253	0.00881	–
[2], 308.15 K, c1 = 0.02549	0.00873	–
[2], 308.15 K, c1 = 0.02884	0.00863	–
[2], 308.15 K, c1 = 0.03245	0.00856	–
[2], 308.15 K, c1 = 0.0363	0.00846	–
[2], 308.15 K, c1 = 0.04073	0.00837	–
[2], 308.15 K, c1 = 0.04603	0.0082	–
[2], 308.15 K, c1 = 0.04936	0.00814	–
[2], 318.15 K, c1 = 0.000273	0.0115	–
[2], 318.15 K, c1 = 0.000592	0.0114	–
[2], 318.15 K, c1 = 0.001207	0.0112	–
[2], 318.15 K, c1 = 0.002002	0.0111	–
[2], 318.15 K, c1 = 0.002757	0.011	–
[2], 318.15 K, c1 = 0.003483	0.0108	–
[2], 318.15 K, c1 = 0.004458	0.0107	–
[2], 318.15 K, c1 = 0.005601	0.0106	–
[2], 318.15 K, c1 = 0.007348	0.0105	–
[2], 318.15 K, c1 = 0.008904	0.0104	–
[2], 318.15 K, c1 = 0.01052	0.0103	–
[2], 318.15 K, c1 = 0.0124	0.0102	–
[2], 318.15 K, c1 = 0.01478	0.0101	–
[2], 318.15 K, c1 = 0.01661	0.01	–
[2], 318.15 K, c1 = 0.0196	0.00989	–
[2], 318.15 K, c1 = 0.02241	0.00978	–
[2], 318.15 K, c1 = 0.02545	0.00966	–
[2], 318.15 K, c1 = 0.02897	0.00953	–
[2], 318.15 K, c1 = 0.03318	0.00939	–
[2], 318.15 K, c1 = 0.03779	0.00924	–
[2], 328.15 K, c1 = 0.000588	0.0119	–
[2], 328.15 K, c1 = 0.001076	0.0118	–
[2], 328.15 K, c1 = 0.001612	0.0117	–
[2], 328.15 K, c1 = 0.002109	0.0116	–
[2], 328.15 K, c1 = 0.002949	0.0116	–
[2], 328.15 K, c1 = 0.003721	0.0116	–
[2], 328.15 K, c1 = 0.004608	0.0115	–
[2], 328.15 K, c1 = 0.005897	0.0113	–
[2], 328.15 K, c1 = 0.007087	0.0111	–
[2], 328.15 K, c1 = 0.008632	0.011	–
[2], 328.15 K, c1 = 0.01034	0.0108	–
[2], 328.15 K, c1 = 0.01229	0.0106	–
[2], 328.15 K, c1 = 0.01539	0.0105	–
[2], 328.15 K, c1 = 0.01788	0.0104	–
[2], 328.15 K, c1 = 0.02011	0.0103	–
[2], 328.15 K, c1 = 0.02273	0.0101	–
